In ChEMBL document CHEMBL1148517, “A new class of selective, non-basic 5-HT2A receptor antagonists” (Bioorg Med Chem Lett, 2006) one finds Ki and IC50 data, which are given here for 14 compounds.

The target in experiment [1] is D(2) dopamine receptor (Homo sapiens, UniProt P14416). As to the kind of experiment: Binding affinity to human D2 receptor.
Experiment [2] concerns the target T1, 5-hydroxytryptamine receptor 2C (Homo sapiens, UniProt P28335).
T1 sequence (P28335 whole entry): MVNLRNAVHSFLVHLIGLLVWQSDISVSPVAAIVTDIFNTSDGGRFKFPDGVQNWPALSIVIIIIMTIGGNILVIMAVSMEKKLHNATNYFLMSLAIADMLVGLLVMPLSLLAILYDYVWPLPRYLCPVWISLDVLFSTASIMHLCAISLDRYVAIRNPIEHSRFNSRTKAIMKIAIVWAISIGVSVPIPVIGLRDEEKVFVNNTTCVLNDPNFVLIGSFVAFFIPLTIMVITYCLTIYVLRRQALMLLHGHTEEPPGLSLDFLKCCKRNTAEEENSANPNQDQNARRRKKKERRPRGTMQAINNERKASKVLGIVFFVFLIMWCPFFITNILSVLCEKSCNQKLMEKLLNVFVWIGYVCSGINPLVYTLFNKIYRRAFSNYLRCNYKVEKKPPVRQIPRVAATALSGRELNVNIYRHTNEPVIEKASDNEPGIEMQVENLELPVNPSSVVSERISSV
The experiment can be described thus: Binding affinity to human 5HT2C.

Experiment [3] deals with Voltage-gated inwardly rectifying potassium channel KCNH2 (Homo sapiens, UniProt Q12809). As to the kind of experiment: Binding affinity to human IKr.
Sequence of Voltage-gated inwardly rectifying potassium channel KCNH2 (Q12809 whole entry): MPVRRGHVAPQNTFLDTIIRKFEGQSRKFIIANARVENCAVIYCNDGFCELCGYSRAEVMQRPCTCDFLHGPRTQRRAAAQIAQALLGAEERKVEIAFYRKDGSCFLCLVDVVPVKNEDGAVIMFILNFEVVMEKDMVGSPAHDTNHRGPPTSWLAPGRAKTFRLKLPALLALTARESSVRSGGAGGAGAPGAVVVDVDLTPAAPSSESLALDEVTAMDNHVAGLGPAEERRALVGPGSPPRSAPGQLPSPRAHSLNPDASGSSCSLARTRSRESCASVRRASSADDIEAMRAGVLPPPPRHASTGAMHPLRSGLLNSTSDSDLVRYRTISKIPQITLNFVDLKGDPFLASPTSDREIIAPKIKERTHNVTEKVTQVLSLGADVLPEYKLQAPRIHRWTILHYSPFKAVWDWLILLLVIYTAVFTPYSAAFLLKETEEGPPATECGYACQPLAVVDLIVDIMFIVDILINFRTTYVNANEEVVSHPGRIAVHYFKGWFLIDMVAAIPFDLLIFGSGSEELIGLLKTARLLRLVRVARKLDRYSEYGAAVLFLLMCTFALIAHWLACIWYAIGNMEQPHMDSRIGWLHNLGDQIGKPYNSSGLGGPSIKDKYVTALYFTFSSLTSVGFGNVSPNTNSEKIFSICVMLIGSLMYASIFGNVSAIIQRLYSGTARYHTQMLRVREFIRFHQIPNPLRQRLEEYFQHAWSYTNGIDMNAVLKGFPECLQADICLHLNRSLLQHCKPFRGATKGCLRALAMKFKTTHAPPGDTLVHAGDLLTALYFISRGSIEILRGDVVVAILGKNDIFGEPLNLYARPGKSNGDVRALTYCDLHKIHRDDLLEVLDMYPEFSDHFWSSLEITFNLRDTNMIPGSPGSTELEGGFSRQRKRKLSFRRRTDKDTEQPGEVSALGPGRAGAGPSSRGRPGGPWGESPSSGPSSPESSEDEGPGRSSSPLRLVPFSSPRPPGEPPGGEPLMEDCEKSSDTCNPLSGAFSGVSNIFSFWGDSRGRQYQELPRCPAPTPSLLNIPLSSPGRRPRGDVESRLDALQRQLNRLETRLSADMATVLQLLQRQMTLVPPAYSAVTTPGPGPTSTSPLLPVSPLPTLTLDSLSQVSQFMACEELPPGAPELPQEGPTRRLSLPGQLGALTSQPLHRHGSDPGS
The target of experiment [4] is T2, 5-hydroxytryptamine receptor 2A (Homo sapiens, UniProt P28223). As to the kind of experiment: Binding affinity to human 5HT2A.
T2 sequence (P28223 whole entry): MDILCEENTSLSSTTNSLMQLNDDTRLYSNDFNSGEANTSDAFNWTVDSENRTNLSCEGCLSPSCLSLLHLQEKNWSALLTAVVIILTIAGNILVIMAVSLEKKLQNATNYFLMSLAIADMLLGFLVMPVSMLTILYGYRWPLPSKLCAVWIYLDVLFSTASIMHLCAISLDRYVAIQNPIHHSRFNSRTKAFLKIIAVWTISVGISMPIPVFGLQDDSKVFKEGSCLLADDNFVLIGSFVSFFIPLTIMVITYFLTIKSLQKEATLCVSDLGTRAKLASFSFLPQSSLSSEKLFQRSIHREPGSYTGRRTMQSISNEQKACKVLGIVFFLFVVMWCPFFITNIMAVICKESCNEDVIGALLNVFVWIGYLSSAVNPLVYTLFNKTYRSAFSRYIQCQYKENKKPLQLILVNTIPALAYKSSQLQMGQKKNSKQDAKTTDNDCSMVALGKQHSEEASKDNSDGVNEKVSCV
Experiment [5] addresses T2, 5-hydroxytryptamine receptor 2A. As to the kind of experiment: Antagonist activity against human 5HT2A transfected in CHO cells by aurora beta lactamase reporter gene assay. Type of experiment: functional, cell-based. A general note: Reporter assays use an easily measured gene product as a stand-in for the process of interest.

Some results are limits rather than exact numbers.

Sequence of D(2) dopamine receptor (P14416 whole entry): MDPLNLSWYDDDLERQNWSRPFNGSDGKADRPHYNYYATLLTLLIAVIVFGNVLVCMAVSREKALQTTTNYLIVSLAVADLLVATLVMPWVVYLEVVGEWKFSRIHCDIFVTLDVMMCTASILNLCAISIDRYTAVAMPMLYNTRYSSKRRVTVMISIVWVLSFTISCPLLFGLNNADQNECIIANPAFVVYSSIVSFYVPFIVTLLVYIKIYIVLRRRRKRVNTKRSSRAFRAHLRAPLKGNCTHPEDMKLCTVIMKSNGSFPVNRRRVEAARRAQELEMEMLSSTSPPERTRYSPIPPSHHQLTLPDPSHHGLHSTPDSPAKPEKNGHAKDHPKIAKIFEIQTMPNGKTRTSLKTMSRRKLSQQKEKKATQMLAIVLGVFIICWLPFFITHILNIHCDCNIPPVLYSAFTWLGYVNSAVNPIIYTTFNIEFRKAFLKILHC

With `O=S(=O)(c1cccc(F)c1)N1CCC(CCc2ccc(F)cc2F)CC1`, the Ki (as a rule, a dissociation constant, usually derived from enzyme kinetics or from competition with a known ligand) was over 1 µM in experiment [1], 0.997 µM in experiment [2], over 9 µM in experiment [3] and 0.014 µM in experiment [4]. Also, in experiment [5], the IC50 – broadly, the concentration at which inhibition is half-maximal – was determined as 0.319 µM.

Take `O=S(=O)(c1ccccc1F)N1CCC(CCc2ccc(F)cc2F)CC1`: the Ki in experiment [1] was over 1 µM; in experiment [2], 0.239 µM; in experiment [3] it was over 9 µM; in experiment [4], 0.0099 µM.

For `O=S(=O)(c1cccc2ccccc12)N1CCC(CCc2ccc(F)cc2F)CC1`, the inhibition constant Ki in experiment [1] is over 1 µM; in experiment [2] it was 0.096 µM; in experiment [3], over 9 µM; in experiment [4], 0.0017 µM.

With `O=S(=O)(c1cccc2cccnc12)N1CCC(CCc2ccc(F)cc2F)CC1`, the Ki was over 1 µM in experiment [1], 0.184 µM in experiment [2], over 9 µM in experiment [3] and 0.0021 µM in experiment [4].

Consider `O=S(=O)(c1ccc(F)cc1)N1CCC(F)(CCc2ccc(F)cc2F)CC1`, for which the inhibition constant Ki was over 1 µM in experiment [1], 0.806 µM in experiment [2], over 9 µM in experiment [3] and 0.024 µM in experiment [4].

As to `O=C(c1cccc2cccnc12)N1CCC(CCc2ccc(F)cc2F)CC1`, the inhibition constant Ki is over 1 µM in experiment [1], 0.028 µM in experiment [2], over 9 µM in experiment [3] and 0.0029 µM in experiment [4].

For the compound `O=S(=O)(c1ccc(F)cc1)N1CC=C(CCc2ccc(F)cc2F)CC1`, the Ki in experiment [1] is over 1 µM; in experiment [2] it was 0.449 µM; in experiment [3], over 9 µM; in experiment [4], 0.022 µM.

For `N#Cc1ccccc1S(=O)(=O)N1CCC(CCc2ccc(F)cc2F)CC1`, the inhibition constant (Ki) is over 1 µM in experiment [1], 0.07 µM in experiment [2], over 9 µM in experiment [3] and 0.0081 µM in experiment [4].

For `O=C(c1ccccc1F)N1CCC(CCc2ccc(F)cc2F)CC1`, the Ki in experiment [1] was over 1 µM; in experiment [2] it was 0.11 µM; in experiment [3] it was over 9 µM.

Take `O=S(=O)(c1ccc(F)cc1)N1CCN(CCc2ccc(F)cc2F)CC1`: the Ki in experiment [1] was over 1 µM; in experiment [2], 3.78 µM; in experiment [3], 4.87 µM; in experiment [4] it was 0.0044 µM.

Turning to `O=S(=O)(c1ccc(F)cc1)N1CCC(O)(CCc2ccc(F)cc2F)CC1`, the inhibition constant (Ki) in experiment [1] was over 1 µM; in experiment [2], over 4 µM; in experiment [3], over 9 µM; in experiment [4], 0.19 µM.

In the case of `O=S(=O)(c1ccc(F)cc1)N1CCC(CCc2ccc(F)cc2F)CC1`, the inhibitory constant (Ki) is over 1 µM in experiment [1], 2.03 µM in experiment [2], over 9 µM in experiment [3] and 0.052 µM in experiment [4].

Regarding `N#Cc1c[nH]c2c(C(=O)N3CCN(CCc4ccc(F)cc4F)CC3)cccc12`, the Ki in experiment [1] was over 1 µM; in experiment [2], 0.557 µM; in experiment [3] it was 1.27 µM; in experiment [4] it was 0.00087 µM.

Take `O=S(=O)(c1ccccc1Cl)N1CCC(CCc2ccc(F)cc2F)CC1`: the Ki was over 1 µM in experiment [1], 0.404 µM in experiment [2], over 9 µM in experiment [3] and 0.0061 µM in experiment [4].
